Results on 18 compounds are retold here after patent US8269000B2, “Substituted pyrimidine and triazine compounds” (Gruenenthal GmbH, priority 2008, dated 2012).

The target in the assay is T1, rat B1R (Rattus norvegicus, UniProt P97583).
T1 construct: expressed in transfected cells; host or cells: CHO K1 cells
T1 sequence (P97583 1-337): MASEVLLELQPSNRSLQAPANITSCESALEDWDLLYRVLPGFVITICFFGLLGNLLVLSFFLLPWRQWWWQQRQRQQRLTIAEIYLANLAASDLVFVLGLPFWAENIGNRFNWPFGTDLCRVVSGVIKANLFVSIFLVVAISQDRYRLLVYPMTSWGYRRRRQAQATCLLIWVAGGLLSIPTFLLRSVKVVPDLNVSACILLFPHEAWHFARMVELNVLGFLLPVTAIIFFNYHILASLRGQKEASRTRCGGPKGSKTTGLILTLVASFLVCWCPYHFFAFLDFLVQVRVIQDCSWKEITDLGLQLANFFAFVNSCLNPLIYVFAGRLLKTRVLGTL
Briefly: FLIPR Ca2+ functional study on bradykinin receptor 1 (rB1R CHO K1 cells). It counts as cell-based. The note with it: for inhibition at 10 µM: CHO-K1, % inhibition rat B1R at 10 μM, read-out: % inh. (rat B1R) 10 μM; for % inh. (rat B1R) 10 μM: % inhibition rat B1R at 10 μM. Here is the method: The agonistic or antagonistic activity of substances can be quantified on the bradykinin receptor 1 (B1R) of the species human and rat using ectopically expressing cell lines (CHO K1 cells) and with the aid of a Ca^2+-sensitive dye (Fluo-4) using a fluorescent imaging plate reader (FLIPR). The indication in % activation is based on the Ca^2+ signal after addition of Lys-Des-Arg^9-bradykinin (0.5 nM) or Des-Arg^9-bradykinin (100 nM). Antagonists lead to suppression of the Ca^2+ influx after the addition of the agonist. % Inhibition compared with the maximum achievable inhibition is indicated.
The agonistic or antagonistic activity of substances can be determined on the bradykinin receptor 1 (B1R) of the species human and rat using the following assay. According to this assay, the Ca^2+ influx through the channel is quantified with the aid of a Ca^2+-sensitive dye (Fluo-4 type, Molecular Probes Europe BV, Leiden, Netherlands) using a Fluorescent Imaging Plate Reader (FLIPR, Molecular Devices, Sunnyvale, USA).
Chinese hamster ovary cells (CHO K1 cells) which have been stably transfected with the human B1R gene (hB1R cells) or with the B1R gene of the rat (rB1R cells) are used. For functional studies, the cells are plated out on black 96-well plates having a clear base (BD Biosciences, Heidelberg, Germany or Greiner, Frickenhausen, Germany) in a density of 20,000-35,000 cells/well. The cells are left overnight at 37° C. and with 5% CO2 in culture medium (hB1R cells: Nutrient Mixture Ham's F12, Gibco Invitrogen GmbH, Karlsruhe, Germany or DMEM, Sigma-Aldrich, Taufkirchen, Germany; rB1R cells: D-MEM/F12, Gibco Invitrogen GmbH, Karlsruhe, Germany), with 10 vol.% FBS (fetal bovine serum, Gibco Invitrogen GmbH, Karlsruhe, Germany or PAN Biotech GmbH, Aidenbach, Germany). On the following day, the cells are loaded for 60 minutes at 37° C. with 2.13 μM Fluo-4 (Molecular Probes Europe BV, Leiden, Netherlands) in HBSS buffer (Hank's buffered saline solution, Gibco Invitrogen GmbH, Karlsruhe, Germany) […] (Sigma-Aldrich, Taufkirchen, Germany) and 10 mM HEPES (Sigma-Aldrich, Taufkirchen, Germany). The plates are then washed twice with HBSS buffer, and HBSS buffer additionally containing 0.1% BSA (bovine serum albumin; Sigma-Aldrich, Taufkirchen, Germany), 5.6 mM glucose and 0.05% gelatin (Merck KGaA, Darmstadt, Germany) is added to the plates. After incubation for a further 20 minutes at room temperature, the plates are inserted into the FLIPR for Ca^2+ measurement. Alternatively, washing is carried out with buffer A (15 mM HEPES, 80 mM NaCl, 5 mM KCl, 1.2 mM CaCl2, 0.7 mM MgSO4, 2 g/l glucose, 2.5 mM probenecid) followed by loading with buffer A with added 2.5 μM Fluo-4 and 0.025% Pluronic F127 (Sigma-Aldrich, Taufkirchen, Germany). The cells are then washed twice with buffer A and incubated for 30 minutes at room temperature with buffer A additionally containing 0.05% BSA and 0.05% gelatin and are then inserted into the FLIPR for Ca^2+ measurement. The Ca^2+-dependent fluorescence is measured before and after the addition of substances (λex=488 nm, λem=540 nm). Quantification is carried out by measuring the highest fluorescence intensity (FC, fluorescence counts) over time.
The FLIPR protocol consists of two substance additions. Test substances (10 μM) are first pipetted onto the cells and the Ca^2+ influx is compared with the control (hB1R: Lys-Des-Arg^9-bradykinin>=50 nM; rB1R: Des-Arg^9-bradykinin 10 μM). This gives the activation in %, based on the Ca^2+ signal after addition of Lys-Des-Arg^9-bradykinin (>=50 nM) or Des-Arg^9-bradykinin (10 μM). After 10-20 minutes' incubation, Lys-Des-Arg^9-bradykinin (hB1R) or Des-Arg^9-bradykinin (rB1R) is applied in the concentration of the EC80, and the influx of Ca^2+ is likewise determined. Antagonists lead to suppression of the Ca^2+ influx. The % inhibition compared with the maximum achievable inhibition is calculated. […]

On to `CCCCC1(N(C)C)CCN(c2ccnc(OC[C@@H]3Cc4ccccc4N3S(=O)(=O)c3c(C)cc(OC)cc3C)n2)CC1` [G_CC-093, [4-butyl-1-[2-[[(2S)-1-[(4-methoxy-2,6-dimethyl-phenyl)sulfonyl]-2,3-dihydro-1H-indol-2-yl]-methoxy]-pyrimidin-4-yl]-piperidin-4-yl]-dimethyl-amine], for which the inhibition at 10 µM was determined as 91%.

As for `COc1cc(C)c(S(=O)(=O)N2CCC[C@H]2COc2nccc(N3CCC(O)(c4ccccn4)CC3)n2)c(C)c1` [G_CC-083, 1-[2-[[(2S)-1-[(4-methoxy-2,6-dimethyl-phenyl)sulfonyl]-pyrrolidin-2-yl]-methoxy]-pyrimidin-4-yl]-4-pyridin-2-yl-piperidin-4-ol], the inhibition at 10 µM was determined as 62%.

With `COc1cc(C)c(S(=O)(=O)N2c3ccccc3C[C@H]2COc2ccnc(N(C)CCCN3CCC(c4ccccc4)(N(C)C)CC3)n2)c(C)c1` [H_CC-075, 3-(4-dimethylamino-4-phenyl-piperidin-1-yl)-propyl-[4-[[(2S)-1-[(4-methoxy-2,6-dimethyl-phenyl)sulfonyl]-2,3-dihydro-1H-indol-2-yl]-methoxy]-pyrimidin-2-yl]-methyl-amine], the inhibition at 10 µM is 75%.

`COc1cc(C)c(S(=O)(=O)N2c3ccccc3C[C@H]2COc2ccnc(N3CCN(CC4CCN(C)CC4)CC3)n2)c(C)c1` [H_CC-020, (2S)-1-(4-methoxy-2,6-dimethylphenyl)sulfonyl-2-[[2-[4-[(1-methyl-4-pipendinyl)methyl]-1-piperazinyl]-4-pyrimidinyl]oxymethyl]indoline]: the “% inh. (rat B1R) 10 μM” value was found to be 93%.

For the compound `COc1cc(C)c(S(=O)(=O)N2CC(Oc3ccnc(N4CCC(O)(c5cccnc5)CC4)n3)C2)c(C)c1` [H_CC-076, 1-[4-[1-[(4-methoxy-2,6-dimethyl-phenyl)sulfonyl]-azetidin-3-yl]oxy-pyrimidin-2-yl]-4-pyridin-3-yl-piperidin-4-ol], the inhibition at 10 µM turned out to be 69%.

Consider `COc1cc(C)c(S(=O)(=O)N2c3ccccc3C[C@H]2COc2ccnc(N3CCC(N4CCN(C)CC4)CC3)n2)c(C)c1` [H_CC-018, (2S)-1-(4-methoxy-2,6-dimethylphenyl)sulfonyl-2-[[2-[4-(4-methyl-1-piperazinyl)-1-pipendinyl]-4-pyrimidinyl]oxymethyl]indoline], for which the “% inh. (rat B1R) 10 μM” value came out at 91%.

Take `COc1cc(C)c(S(=O)(=O)N(C)CCOc2ccnc(N(C)CCN3CCC(Oc4ccncc4)CC3)n2)c(C)c1` [H_CC-089, 4-methoxy-N,2,6-trimethyl-N-[2-[2-[methyl-[2-(4-pyridin-4-yloxy-piperidin-1-yl)-ethyl]-amino]-pyrimidin-4-yl]oxy-ethyl]benzenesulfonic acid amide]: the inhibition at 10 µM was determined as 58%.

Take `COc1cc(C)c(S(=O)(=O)N2CCCCC2COc2nccc(N3CCC4(CC3)CCN(c3ccc(F)cc3)C4=O)n2)c(C)c1` (stereo not drawn) [G_CC-038, 3-(4-fluorophenyl)-8-[2-[[1-(4-methoxy-2,6-dimethylphenyl)sulfonyl-2-piperidinyl]methoxy]-4-pyrimidinyl]-3,8-diazaspiro[4.5]decan-4-one]: the inhibition at 10 µM was 94%.

Take `COc1cc(C)c(S(=O)(=O)N2CCC[C@H]2COc2ccnc(N3CCN(c4ncccn4)CC3)n2)c(C)c1` [H_CC-011, 4-[[(2S)-1-(4-methoxy-2,6-dimethylphenyl)sulfonyl-2-pyrrolidinyl]methoxy]-2-[4-(2-pyrimidinyl)-1-piperazinyl]pyrimidine]: the inhibition at 10 µM is 56%.

`COc1cc(C)c(S(=O)(=O)N2CCCCC2COc2nccc(N3CCC(c4ccccc4)(N4CCCC4)CC3)n2)c(C)c1` (stereo not drawn) [G_CC-121, 2-[[1-[(4-methoxy-2,6-dimethyl-phenyl)sulfonyl]-piperidin-2-yl]-methoxy]-4-(4-phenyl-4-pyrrolidin-1-yl-piperidin-1-yl)-pyrimidine]: the inhibition at 10 µM came to 75%.

Turning to `COc1cc(C)c(S(=O)(=O)N2CCCC(Oc3ccnc(N(C)CCN4CCC(c5ccccc5)(N(C)C)CC4)n3)C2)c(C)c1` (stereo not drawn) [H_CC-065, 2-(4-dimethylamino-4-phenyl-piperidin-1-yl)-ethyl-[4-[1-[(4-methoxy-2,6-dimethyl-phenyl)sulfonyl]-piperidin-3-yl]oxy-pyrimidin-2-yl]-methyl-amine], the inhibition at 10 µM amounted to 52%.

For the compound `COc1cc(C)c(S(=O)(=O)N2CC(Oc3ccnc(N(C)CCCN4CCC(c5ccccc5)(N(C)C)CC4)n3)C2)c(C)c1` [H_CC-074, 3-(4-dimethylamino-4-phenyl-piperidin-1-yl)-propyl-[4-[1-[(4-methoxy-2,6-dimethyl-phenyl)sulfonyl]-azetidin-3-yl]oxy-pyrimidin-2-yl]-methyl-amine], the inhibition at 10 µM was determined as 59%.

Take `COc1cc(C)c(S(=O)(=O)N2CCC[C@H]2COc2ccnc(N3CCC(N4CCN(C)CC4)CC3)n2)c(C)c1` [H_CC-010, 4-[[(2S)-1-(4-methoxy-2,6-dimethylphenyl)sulfonyl-2-pyrrolidinyl]methoxy]-2-[4-(4-methyl-1-piperazinyl)-1-piperidinyl]pyrimidine]: the inhibition at 10 µM came to 100%.

Consider `COc1cc(C)c(S(=O)(=O)N(C)CCOc2ccnc(N(C)CCN3CCC(c4ccccc4)(N4CCCC4)CC3)n2)c(C)c1` [H_CC-059, 4-methoxy-N,2,6-trimethyl-N-[2-[2-[methyl-[2-(4-phenyl-4-pyrrolidin-1-yl-piperidin-1-yl)-ethyl]-amino]-pyrimidin-4-yl]oxy-ethyl]-benzenesulfonic acid amide], for which the inhibition at 10 µM was found to be 91%.

In the case of `CCCCC1(N(C)C)CCN(CCN(C)c2nccc(OC[C@@H]3Cc4ccccc4N3S(=O)(=O)c3c(C)cc(OC)cc3C)n2)CC1` [H_CC-058, 2-(4-butyl-4-dimethylamino-piperidin-1-yl)-ethyl-[4-[[(2S)-1-[(4-methoxy-2,6-dimethyl-phenyl)sulfonyl]-2,3-dihydro-1H-indol-2-yl]-methoxy]-pyrimidin-2-yl]-methyl-amine], the inhibition at 10 µM turned out to be 97%.

On to `COc1cc(C)c(S(=O)(=O)N2CCC[C@H]2COc2ccnc(N3CCC4(CC3)C(=O)NCN4c3ccccc3)n2)c(C)c1` [H_CC-024, 8-[4-[[(2S)-1-(4-methoxy-2,6-dimethylphenyl)sulfonyl-2-pyrrlidinyl]methoxy]-2-pyrimidinyl]-4-phenyl-2,4,8-triazaspiro[4.5]decan-1-one], for which the “% inh. (rat B1R) 10 μM” value came to 97%.

Turning to `COc1cc(C)c(S(=O)(=O)N(C)CCOc2nccc(N3CCN(c4ccc(F)cc4)CC3)n2)c(C)c1` [G_CC-005, N-[2-[[4-[4-(4-fluorophenyl)-1-piperazinyl]-2-pyrimidinyl]oxy]ethyl]-4-methoxy-N,2,6-trimethylbenzenesulfonamide], the inhibition at 10 µM came to 81%.

In the case of `COc1cc(C)c(S(=O)(=O)N2CCC[C@H]2COc2nccc(N3CCN(C)CC3)n2)c(C)c1` [G_CC-015, 2-[[(2S)-1-(4-methoxy-2,6-dimethylphenyl)sulfonyl-2-pyrrolidinyl]methoxy]-4-(4-methyl-1-piperazinyl)pyrimidine], the inhibition at 10 µM came out at 83%.
